{
  "source": "patent US10463644B2",
  "about": "“Uses of sesquiterpene lactone compounds and their derivatives in drugs preparation” (ACCENDATECH, priority 2013, dated 2019)",
  "key": {"[1]": {"tested_on": "TNF-α secreted by synoviocyte", "experiment": "Content of TNF-α in culture supernatant of synoviocyte of RA model rats given test compound", "type": "in vivo", "settings": "rat RA model, dose 30 mg/kg.2d; normal control 0.38 ± 0.027, NaCl 0.74 ± 0.098", "source_text": "(§1) Take Compound 1-50 prepared as per the method according to the present invention and employ the method provided in Reference to prepare model, group drugs and prepare culture supernatant of rat synoviocyte.\n(§2) Employ the method provided in Reference to investigate the effects of the test compounds on the synoviocyte to secrete TNF-α and PGE2. Employ the method provided in Reference to investigate the effects of the test compounds on the synoviocyte to secrete IL-1β.\n(§3) The experimental data of the test compound 1-50 at a dose of 30 mg/kg.2d as well as the normal control and NaCl group are as follows: […]"}, "[2]": {"tested_on": "IL-1β secreted by synoviocyte", "experiment": "Content of IL-1β in culture supernatant of synoviocyte of RA model rats given test compound", "type": "in vivo", "settings": "rat RA model, dose 30 mg/kg.2d; normal control 0.16 ± 0.034, NaCl 0.49 ± 0.136", "source_text": "as §1, §2, §3"}, "[3]": {"tested_on": "PGE2 secreted by synoviocyte", "experiment": "Content of PGE2 in culture supernatant of synoviocyte of RA model rats given test compound", "type": "in vivo", "settings": "rat RA model, dose 30 mg/kg.2d; normal control 8.34 ± 1.29, NaCl 32.44 ± 10.32", "source_text": "as §1, §2, §3"}, "[4]": {"tested_on": "cancer cells", "experiment": "Survival rate of cancer cells after test compound is added (flow cytometry, Annexin V-FITC/PI, clinical specimen)", "type": "cell-based, patient", "source_text": "Take fresh or cryopreserved clinical specimen (acute myelogenous leukemia (AML, marker is CD34^+/CD38^+), chronic myelogenous leukemia (CML, Ph+/CD34+/CXCR4+), chronic lymphocytic leukemia (CLL,CD133+/CD19−/CD38−), skin cancer (CD34+), breast cancer (CD44+/CD24−/ESA+), ovarian cancer (CD44+/CD117+), brain tumor (CD133+) prostate cancer (CD44+/CD24−), head-neck squamous cell carcinoma (CD44+), laryngeal cancer (CD133+), pancreatic cancer (ESA+/CD44+/CD24+), retinoblastoma (ABCG2/ALDH1), Children hepatoblastoma (CD34+/THY1+/c-kit+), liver cancer (CD133+), malignant melanoma (CD133+), colorectal cancer (EpCAM^high/CD44+), colon adenocarcinoma (CD44^high), glioma (ABCG-2/BCRP1), gastrointestinal tumor (ABCG-2/BCRP1), nasopharynx cancer (ABCG2), brain glioma (Dlk-1/Pref-1), gastric cancer (CD45+), lung adenocarcinoma (Sca-1/CD45-/Pecam-/CD34+), lung cancer (CD133+CD34+CD44+)) of patient. Take the acute myelogenous leukemia as the example, conduct density gradient centrifugation with Ficoll and take out the middle mononuclear cells, re-suspend it with serum-free IMDM after centrifuged. Adjust the concentration of cells into 1×10^6/mL and lay 24-well plate with 1 mL in each well, and then treat 18 hours with the compound to select with corresponding concentration. Collect the cells and centrifuge them at 1500 rps for 8 minutes, re-suspend the precipitation with […], mark the antibodies related to leukemia stem cell, avoid light to incubate 30 minutes at room temperature and then centrifuge it at 1500 rps, then wash away the unbound antibody CD34^+CD38^+. Re-suspend it with 100 μl 1× Binding Buffer and add respectively 5 μl Annexin V-FITC and PI, then avoid light to incubate 15 minutes before add 200 μl 1× Binding Buffer, then use flow cytometry to examine the marked apoptosis within one hour."}},
  "data": [
    {"smiles": "CN(C)C[C@@H]1C(=O)O[C@H]2[C@H]1CCC1(CC1)[C@@H]1CCC3(CC3)[C@H]21.Cl", "note": "[Compound 28]", "values": [
      {"measurement": "Content of TNF-α in culture supernatant of synoviocyte (x ± s)", "setting": "[1]", "value": "0.47 ± 0.056", "unit": "ng/mL"},
      {"measurement": "Content of IL-1β in culture supernatant of synoviocyte (x ± s)", "setting": "[2]", "value": "0.31 ± 0.067", "unit": "ng/mL"},
      {"measurement": "Content of PGE2 in culture supernatant of synoviocyte (x ± s)", "setting": "[3]", "value": "18.92 ± 1.98", "unit": "ng/mL"},
      {"measurement": "Survival rate (%) All cells (Stem cells and ordinary cells)", "setting": "[4]; AML, 10.0 μM", "value": 94, "unit": "%"},
      {"measurement": "Survival rate (%) All cells (Stem cells and ordinary cells)", "setting": "[4]; AML, 20.0 μM", "value": 87, "unit": "%"},
      {"measurement": "Survival rate (%) All cells (Stem cells and ordinary cells)", "setting": "[4]; Brain glioma, 10.0 μM", "value": 89, "unit": "%"},
      {"measurement": "Survival rate (%) All cells (Stem cells and ordinary cells)", "setting": "[4]; Brain glioma, 20.0 μM", "value": 86, "unit": "%"},
      {"measurement": "Survival rate (%) All cells (Stem cells and ordinary cells)", "setting": "[4]; Brain tumor, 10.0 μM", "value": 91, "unit": "%"},
      {"measurement": "Survival rate (%) All cells (Stem cells and ordinary cells)", "setting": "[4]; Brain tumor, 20.0 μM", "value": 87, "unit": "%"},
      {"measurement": "Survival rate (%) All cells (Stem cells and ordinary cells)", "setting": "[4]; Breast cancer, 10.0 μM", "value": 87, "unit": "%"},
      {"measurement": "Survival rate (%) All cells (Stem cells and ordinary cells)", "setting": "[4]; Breast cancer, 20.0 μM", "value": 83, "unit": "%"},
      {"measurement": "Survival rate (%) All cells (Stem cells and ordinary cells)", "setting": "[4]; CLL, 10.0 μM", "value": 91, "unit": "%"},
      {"measurement": "Survival rate (%) All cells (Stem cells and ordinary cells)", "setting": "[4]; CLL, 20.0 μM", "value": 87, "unit": "%"},
      {"measurement": "Survival rate (%) All cells (Stem cells and ordinary cells)", "setting": "[4]; CML, 10.0 μM", "value": 92, "unit": "%"},
      {"measurement": "Survival rate (%) All cells (Stem cells and ordinary cells)", "setting": "[4]; CML, 20.0 μM", "value": 89, "unit": "%"},
      {"measurement": "Survival rate (%) All cells (Stem cells and ordinary cells)", "setting": "[4]; Children hepatoblastoma, 10.0 μM", "value": 92, "unit": "%"},
      {"measurement": "Survival rate (%) All cells (Stem cells and ordinary cells)", "setting": "[4]; Children hepatoblastoma, 20.0 μM", "value": 89, "unit": "%"},
      {"measurement": "Survival rate (%) All cells (Stem cells and ordinary cells)", "setting": "[4]; Colon adenocarcinoma, 10.0 μM", "value": 88, "unit": "%"},
      {"measurement": "Survival rate (%) All cells (Stem cells and ordinary cells)", "setting": "[4]; Colon adenocarcinoma, 20.0 μM", "value": 85, "unit": "%"},
      {"measurement": "Survival rate (%) All cells (Stem cells and ordinary cells)", "setting": "[4]; Colorectal cancer, 10.0 μM", "value": 87, "unit": "%"},
      {"measurement": "Survival rate (%) All cells (Stem cells and ordinary cells)", "setting": "[4]; Colorectal cancer, 20.0 μM", "value": 83, "unit": "%"},
      {"measurement": "Survival rate (%) All cells (Stem cells and ordinary cells)", "setting": "[4]; Gastric cancer, 10.0 μM", "value": 88, "unit": "%"},
      {"measurement": "Survival rate (%) All cells (Stem cells and ordinary cells)", "setting": "[4]; Gastric cancer, 20.0 μM", "value": 81, "unit": "%"},
      {"measurement": "Survival rate (%) All cells (Stem cells and ordinary cells)", "setting": "[4]; Gastrointestinal tumor, 10.0 μM", "value": 88, "unit": "%"},
      {"measurement": "Survival rate (%) All cells (Stem cells and ordinary cells)", "setting": "[4]; Gastrointestinal tumor, 20.0 μM", "value": 89, "unit": "%"},
      {"measurement": "Survival rate (%) All cells (Stem cells and ordinary cells)", "setting": "[4]; Glioma, 10.0 μM", "value": 93, "unit": "%"},
      {"measurement": "Survival rate (%) All cells (Stem cells and ordinary cells)", "setting": "[4]; Glioma, 20.0 μM", "value": 86, "unit": "%"},
      {"measurement": "Survival rate (%) All cells (Stem cells and ordinary cells)", "setting": "[4]; Head and neck squamous cell carcinomas, 10.0 μM", "value": 87, "unit": "%"},
      {"measurement": "Survival rate (%) All cells (Stem cells and ordinary cells)", "setting": "[4]; Head and neck squamous cell carcinomas, 20.0 μM", "value": 83, "unit": "%"},
      {"measurement": "Survival rate (%) All cells (Stem cells and ordinary cells)", "setting": "[4]; Laryngeal cancer, 10.0 μM", "value": 92, "unit": "%"},
      {"measurement": "Survival rate (%) All cells (Stem cells and ordinary cells)", "setting": "[4]; Laryngeal cancer, 20.0 μM", "value": 89, "unit": "%"},
      {"measurement": "Survival rate (%) All cells (Stem cells and ordinary cells)", "setting": "[4]; Liver cancer, 10.0 μM", "value": 91, "unit": "%"},
      {"measurement": "Survival rate (%) All cells (Stem cells and ordinary cells)", "setting": "[4]; Liver cancer, 20.0 μM", "value": 87, "unit": "%"},
      {"measurement": "Survival rate (%) All cells (Stem cells and ordinary cells)", "setting": "[4]; Lung adenocarcinoma, 10.0 μM", "value": 91, "unit": "%"},
      {"measurement": "Survival rate (%) All cells (Stem cells and ordinary cells)", "setting": "[4]; Lung adenocarcinoma, 20.0 μM", "value": 89, "unit": "%"},
      {"measurement": "Survival rate (%) All cells (Stem cells and ordinary cells)", "setting": "[4]; Lung cancer, 10.0 μM", "value": 94, "unit": "%"},
      {"measurement": "Survival rate (%) All cells (Stem cells and ordinary cells)", "setting": "[4]; Lung cancer, 20.0 μM", "value": 87, "unit": "%"},
      {"measurement": "Survival rate (%) All cells (Stem cells and ordinary cells)", "setting": "[4]; Malignant melanoma, 10.0 μM", "value": 91, "unit": "%"},
      {"measurement": "Survival rate (%) All cells (Stem cells and ordinary cells)", "setting": "[4]; Malignant melanoma, 20.0 μM", "value": 88, "unit": "%"},
      {"measurement": "Survival rate (%) All cells (Stem cells and ordinary cells)", "setting": "[4]; Nasopharynx cancer, 10.0 μM", "value": 92, "unit": "%"},
      {"measurement": "Survival rate (%) All cells (Stem cells and ordinary cells)", "setting": "[4]; Nasopharynx cancer, 20.0 μM", "value": 89, "unit": "%"},
      {"measurement": "Survival rate (%) All cells (Stem cells and ordinary cells)", "setting": "[4]; Ovarian cancer, 10.0 μM", "value": 88, "unit": "%"},
      {"measurement": "Survival rate (%) All cells (Stem cells and ordinary cells)", "setting": "[4]; Ovarian cancer, 20.0 μM", "value": 85, "unit": "%"},
      {"measurement": "Survival rate (%) All cells (Stem cells and ordinary cells)", "setting": "[4]; Pancreatic cancer, 10.0 μM", "value": 93, "unit": "%"},
      {"measurement": "Survival rate (%) All cells (Stem cells and ordinary cells)", "setting": "[4]; Pancreatic cancer, 20.0 μM", "value": 92, "unit": "%"},
      {"measurement": "Survival rate (%) All cells (Stem cells and ordinary cells)", "setting": "[4]; Prostate cancer, 10.0 μM", "value": 91, "unit": "%"},
      {"measurement": "Survival rate (%) All cells (Stem cells and ordinary cells)", "setting": "[4]; Prostate cancer, 20.0 μM", "value": 88, "unit": "%"},
      {"measurement": "Survival rate (%) All cells (Stem cells and ordinary cells)", "setting": "[4]; Retinoblastoma, 10.0 μM", "value": 90, "unit": "%"},
      {"measurement": "Survival rate (%) All cells (Stem cells and ordinary cells)", "setting": "[4]; Retinoblastoma, 20.0 μM", "value": 85, "unit": "%"},
      {"measurement": "Survival rate (%) All cells (Stem cells and ordinary cells)", "setting": "[4]; Skin cancer, 10.0 μM", "value": 91, "unit": "%"},
      {"measurement": "Survival rate (%) All cells (Stem cells and ordinary cells)", "setting": "[4]; Skin cancer, 20.0 μM", "value": 88, "unit": "%"}
    ]}
  ]
}
